The values below come from patent US20090203792A1, “METHODS OF TREATING NON-PAINFUL BLADDER DISORDERS USING ALPHA2DELTA SUBUNIT CALCIUM CHANNEL MODULATORS” (priority 2002, published 2009).

Structures are written as SMILES. Entries after “also recorded” stand apart in the source; their conditions may differ.

Data set [1] concerns calcium currents of bladder afferent (DRG) neurons. Description: Bladder sensory neuron calcium current model (whole cell patch-clamp). Type of data set: cell-based, rat. The text has this: Labeling of bladder afferent neurons: Adult female Sprague-Dawley rats (150-300 g) were deeply anesthetized with isoflurane. A ventral midline incision was made through the abdominal skin and musculature, exposing the urinary bladder. Five injections of the fluorescent dye Fast Blue (4%) were made into the bladder smooth muscle wall to label primary afferent fibers innervating the bladder. The area was rinsed with sterile saline to eliminate nonspecific spread of dye, and the incision was closed. Rats recovered for 12-14 days to allow for transport of Fast Blue from distal terminals to the cell somata of dorsal root ganglion (DRG) neurons. Labeled neurons were identified in vitro using fluorescence optics. […]
Neurons were incubated in culture medium containing the FITC-labeled lectin BSI-B4 (IB4, […]) at 37° C. for 5 min before recording. The coverslip was washed with extracellular recording solution for 1 min before being placed in a recording chamber mounted on the stage of an inverted microscope equipped with fluorescence optics. […]
Calcium currents were recorded from DRG neurons using standard electrophysiologic protocols. […] Currents were recorded using a patch-clamp amplifier and digitized at 3-10 kHz for acquisition. […] Baseline responses were recorded until a steady-state peak amplitude was obtained, and to ensure that the kinetics of the response were stable. […]

The test system of data set [2] is rat bladder irritated by intravesical protamine sulfate/KCl. Briefly: Urothelial permeation/physiological potassium model (protamine sulfate/KCl bladder irritation), filling cystometry. Type of data set: in vivo. An excerpt: Female rats (250-275 g BW) are anesthetized with urethane (1.2 g/kg) and a saline-filled jugular catheter (PE-50) is inserted for intravenous drug administration. Via a midline abdominal incision, a PE 50 catheter is inserted into the bladder dome for bladder filling and pressure recording. The abdominal cavity is moistened with saline and closed by covering with a thin plastic sheet in order to maintain access to the bladder for filling cystometry emptying purposes. Fine silver or stainless steel wire electrodes are inserted into the external urethral sphincter (EUS) percutaneously for electromyography (EMG).
Saline and all subsequent infusates are continuously infused at a rate of 0.055 ml/min via the bladder filling catheter for 30-60 minutes to obtain a baseline of lower urinary tract activity (continuous cystometry; CMG). Bladder pressure traces act as direct measures of bladder and urethral outlet activity, and EUS-EMG phasic firing and voiding act as indirect measures of lower urinary tract activity during continuous transvesical cystometry. […] Once a stable level of lower urinary tract hyperactivity is established (20-30 minutes), vehicle followed by increasing doses of a selected active agent are administered intravenously in order to construct a cumulative dose-response relationship and their effects on LUT function are monitored for 20 minutes. […]

Data set [3] concerns rat bladder irritated by intravesical dilute acetic acid. Description: Dilute acetic acid model of bladder overactivity, filling cystometry. The conditions noted are these: for bladder capacity normalized to pre-irritation saline control values (reversal of acetic acid-induced reduction) / bladder capacity during continuous intravesical dilute acetic acid infusion: rats; for bladder capacity normalized to pre-irritation saline control values (reversal of acetic acid-induced reduction): intravenous cumulative doses: gabapentin 30-300 mg/kg n=11, pregabalin 10-100 mg/kg n=7; for bladder capacity during continuous intravesical dilute acetic acid infusion: intravenous increasing doses (gabapentin 30-300 mg/kg, p=0.0031 by Friedman test; pregabalin 10-100 mg/kg). Type of data set: in vivo. The text has this:
Animal Preparation Female rats (250-275 g BW) were anesthetized with urethane (1.2 g/kg) and a saline-filled catheter (PE-50) was inserted into the jugular vein for intravenous drug administration. Via a midline lower abdominal incision, a flared-tipped PE 50 catheter was inserted into the bladder dome for bladder filling and pressure recording and secured by ligation. The abdominal cavity was moistened with saline and closed by covering with a thin plastic sheet in order to maintain access to the bladder for emptying purposes. Fine silver or stainless steel wire electrodes were inserted into the external urethral sphincter (EUS) percutaneously for electromyography (EMG).
Experimental Design: Saline was continuously infused at a rate of 0.055 ml/min via the bladder filling catheter for 60 minutes to obtain a baseline of lower urinary tract activity (continuous cystometry; CMG). Following the control period, a 0.25% acetic acid solution in saline was infused into the bladder at the same flow rate to induce bladder irritation. Following 30 minutes of AA infusion, 3 vehicle injections were made at 20 minute intervals to determine vehicle effects, if any. Increasing doses of a selected active agent, gabapentin (30, 100 and 300 mg/kg; n=11) or pregabalin (10, 30 and 100 mg/kg; n=7), at half log increments were administered intravenously at 30 minute intervals in order to construct a cumulative dose-response relationship. At the end of the control saline cystometry period, at the third vehicle, and 20 minutes following each subsequent treatment, the infusion pump was stopped, the bladder was emptied via the infusion catheter and a single filling cystometrogram was performed at the same flow rate in order to determine changes in bladder capacity caused by the irritation protocol and subsequent […] drug administration. Body temperature was maintained at 37 C with a heating pad.
Bladder capacity was estimated by single filling cystometry. Data were analyzed by non-parametric ANOVA for repeated measures (Friedman Test) for cumulative dose-response studies and Dunn's Multiple Comparison post-test. In some cases, comparisons were made from the last vehicle measurement (AA/Veh 3). P<0.050 was considered significant.

Data set [4] has as its system α2δ subunit of calcium channels. As to conditions: Bryans et al. (1999) Med. Res. Rev. 19: 149-177; cited from earlier work.

On to `[Cl][Cd][Cl]` [CdCl2], for which the “block of currents recorded from bladder afferent neurons” value in data set [1] (0.1 mM, data not shown) is “completely blocked”.
On to `NCC1(CC(=O)O)CCCCC1` [gabapentin, 1-(aminomethyl)cyclohexaneacetic acid], for which the “bladder capacity during continuous bladder irritation (protamine sulfate/KCl)” value in data set [2] (rats n=6, 30, 100 and 300 mg/kg intravenously, sequential at 30 minute intervals, p=0.0108 by Friedman test) was “reversed the irritation effect (decreased bladder capacity) in a dose-dependent fashion; also recorded: dose-dependent increase in bladder capacity”. The “drug-induced changes in blood pressure” value in data set [2] (rats, intravenous, any dose examined) is “No drug-induced changes in blood pressure”. The “bladder capacity response compared with last vehicle measurement (AA/Veh 3)” value in data set [3] (rats n=5, 300 mg/kg intravenous, p<0.05 by Dunn's multiple comparison test) is given as “significantly higher than AA/Veh 3”. In data set [3], the “bladder capacity normalized to pre-irritation saline control values (reversal of acetic acid-induced reduction)” value is ~50% and the “bladder capacity during continuous intravesical dilute acetic acid infusion” value is “partially reversing the reduction in bladder capacity caused by acetic acid in a dose-dependent fashion; also recorded: dose-dependent increase in bladder capacity; also recorded: demonstrate efficacy”. For the same molecule, in data set [1] (30 μM bath application, six bladder afferent neurons, step from −80 mV to 0 mV, mean±SEM), the “peak calcium current during drug application, relative to control” value is listed as 85+1%.
As for `CC(C)C[C@H](CN)CC(=O)O` [Pregabalin, (S)-(3-aminomethyl)-5-methylhexanoic acid], in data set [3], the “bladder capacity normalized to pre-irritation saline control values (reversal of acetic acid-induced reduction)” value worked out at 42% and the “bladder capacity during continuous intravesical dilute acetic acid infusion” value is reported as “demonstrate efficacy”. For the same molecule, in data set [4], the “binding affinity for the α2δ subunit of calcium channels compared with gabapentin” value was “even higher binding affinity”.
